PubChem BioAssay (NCI)
“And” between values parts separate entries of the source, which are not always exact repeats. Equal values may be shown once.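 The compound was tested at five concentrations on cells cultured in 96-well plates, with a 48-hour exposure period. At the GI50, growth is halved. The concentration for full growth arrest is given as TGI.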

How the values were obtained:
Assay in all cases: DTP human tumour cell line panel, 48 h
SN12C renal = test system: SN12C renal
786-0 renal = test system: 786-0 renal
UACC-257 melanoma = test system: UACC-257 melanoma
HCT-116 colon = test system: HCT-116 colon
HCT-15 colon = test system: HCT-15 colon
IGROV1 ovarian = test system: IGROV1 ovarian
HCC-2998 colon = test system: HCC-2998 colon
UO-31 renal = test system: UO-31 renal
SNB-75 CNS = test system: SNB-75 CNS
A498 renal = test system: A498 renal

Structure (SMILES)	GI50 (SN12C renal)	TGI (SN12C renal)	GI50 (786-0 renal)	TGI (786-0 renal)	GI50 (UACC-257 melanoma)	TGI (UACC-257 melanoma)	GI50 (HCT-116 colon)	TGI (HCT-116 colon)	GI50 (HCT-15 colon)	TGI (HCT-15 colon)	GI50 (IGROV1 ovarian)	TGI (IGROV1 ovarian)	GI50 (HCC-2998 colon)	TGI (HCC-2998 colon)	GI50 (UO-31 renal)	TGI (UO-31 renal)	GI50 (SNB-75 CNS)	TGI (SNB-75 CNS)	GI50 (A498 renal)	TGI (A498 renal)
Oc1ccccc1Nc1nc2ccccc2c2occc12	11.1 µM	23.1 µM	0.399 µM	19.2 µM	16.1 µM	29.6 µM	14.3 µM	27.4 µM	12.8 µM	31.7 µM	0.0614 µM	15.8 µM	3.11 µM	10.3 µM	5.91 µM	19.6 µM				
Nc1nc(Cl)c(N=Nc2ccc(Cl)cc2)c(NCC2(CO)CC(OCc3ccccc3)C2)n1 (stereo not drawn)		16.9 µM and > 100 µM and 22 µM	5.31 µM and 11.1 µM and 2.12 µM		32.5 µM and > 95.4 µM and 15.6 µM	> 100 µM and 46 µM	7.37 µM and 40.9 µM and 8.76 µM	> 100 µM and 32.4 µM		> 100 µM and 20.1 µM		70.3 µM and > 100 µM and 29.9 µM		87.3 µM and > 100 µM and 16.9 µM	3.27 µM	12.5 µM and 6.43 µM	4.55 µM	26.8 µM and > 29.1 µM and 25.5 µM	30.9 µM and > 100 µM and 20.2 µM	91.8 µM and > 100 µM and 44.1 µM
Cc1[nH]n(-c2ccc(S(=O)(=O)O)cc2)c(=O)c1N=Nc1ccccc1		> 100 µM		> 100 µM		> 100 µM		> 100 µM		> 100 µM		> 100 µM		> 100 µM		> 100 µM		> 100 µM		> 100 µM
CN1C(=O)c2cc([N+](=O)[O-])ccc2[C@H]2C(=O)c3cc4c(cc3[C@H]21)OCO4	0.0386 µM	0.838 µM	0.0388 µM		0.139 µM	3.3 µM	0.0141 µM	0.128 µM	0.19 µM	> 50 µM	0.153 µM	12 µM			0.0409 µM	1.51 µM	0.12 µM	> 100 µM	0.257 µM	0.528 µM
S=P1(c2ccccc2)Nc2ccc(Cl)cc2N1 (stereo not drawn)				> 100 µM		> 100 µM				> 100 µM		> 100 µM		> 100 µM		> 100 µM				> 100 µM
N#CCc1ccc(/C(C#N)=C2/OC(=N)C(c3ccc(CC#N)cc3)C2=O)cc1 (stereo not drawn)		> 100 µM		> 100 µM		> 100 µM		> 100 µM		> 100 µM		> 100 µM				> 100 µM		> 100 µM		> 100 µM
CN(C)CC(C)(C)C(/C=C/c1ccccc1)=N\Nc1ccccc1		17.6 µM		14.8 µM		23.4 µM		15.7 µM		2.46 µM		17.9 µM				0.843 µM		46.8 µM		37.9 µM
CCOCC(=O)N[C@H]1CCc2cc(OC(=O)COCC)c(OC)c(OC)c2-c2ccc(SC)c(=O)cc21	0.0554 µM	> 100 µM	0.0568 µM	> 100 µM						2.85 µM	0.0382 µM	> 100 µM	0.0211 µM	0.0549 µM and 0.0866 µM	0.68 µM	> 100 µM		> 100 µM		
Cc1ccc(/C=C/C(=O)c2ccc(N)cc2)c(C)c1	1.95 µM	4.2 µM	1.88 µM	3.45 µM	14.3 µM	28.3 µM	1.91 µM	3.76 µM			1.41 µM	3.08 µM	15.6 µM	30.6 µM	1.83 µM	3.92 µM	2.01 µM	7.45 µM	13.6 µM	27.5 µM
